The target in experiment [1] is T1, long form of human GPR120 (Homo sapiens, UniProt Q5NUL3).
T1 construct: host or cells: PathHunter CHO-K1 GPR120 β-Arrestin Cell Line
As to the kind of experiment: Human GPR120 DiscoveRx PathHunter Beta-Arrestin assay, Procedure β-arrestin A. The experiment is classed as cell-based. The conditions noted are these: PathHunter CHO-K1 GPR120 β-Arrestin cell line, 3000 cells per well, read-out: hGPR120 β-arrestin A EC50. An excerpt: The binding of an agonist (medium/long chain fatty acids or small molecule agonists) to the G-protein-coupled receptor GPR120 activates phospholipase C, leading to release of intracellular Ca^+2 through the generation of inositol 1,4,5-trisphosphate (InsP3 or IP3). GPR120 activation can also trigger intracellular signaling via recruitment of Beta-Arrestin. In the present method, agonist-induced activation of the human GPR120 receptor is monitored through the use of PathHunter CHO-K1 GPR120 Beta-Arrestin Cell Line engineered by DiscoveRx, as detailed below. The cell lines are designed to co-express both the ProLink/Enzyme Donor (PK)-tagged GPCR and the Enzyme […] (EA)-tagged Beta-Arrestin fusion proteins. Upon GPR120 receptor stimulation/activation, the EA-tagged Beta-Arrestin portion is translocated to the tagged receptor, where the two enzyme fragments are brought within close proximity. Under these conditions, these fragments can interact and form an active Beta-gal enzyme complex through Enzyme Fragment Complementation (EFC). This active Beta-gal complex can enzymatically hydrolyse the substrate to produce a detectable light signal; therefore, activation as a function of agonist concentration can be expressed as an EC50 value to determine relative compound activities. This in vitro assay therefore serves to assess compound agonist activity of the GPR120. Procedure β-Arrestin A: In Procedure β-arrestin A, the cell used were PathHunter CHO-K1 GPR120 β-Arrestin Cell Line, expressing the long form of human GPR120 (Genbank accession number NM 181745), with 3000 cells per well. Procedure β-Arrestin B: In Procedure 3-arrestin B the cells used were PathHunter CHO-K1 GPR120S β-Arrestin Cell Line, expressing the short form of the GPR120 receptor (Accession #NM_181745), with 5000 cells/well. Assay Procedure:
The selected CHO-K1 GPR120 β-Arrestin cells were cultured in Ham's F12 media supplemented with 10% fetal bovine serum (FBS), 1% Glutamine, lx p/s, 800 μg/mL G418 and 300 μg/mL Hygromycin B (for selection). Cell stocks were maintained and grown in a sub-confluent state using standard cell culture procedures. The day before the experiment, the cells were harvested with non-enzymatic cell dissociation buffer and re-suspended in complete growth media at the desired concentration. A Corning 384-plate was then seeded with the proper number of cells in a volume of 25 μL, per well. The seeded plates were incubated overnight at 37° C.
On the day of the experiment, the Assay Buffer containing (a) HBSS with Ca^++ and Mg^++, (b) 20 mM HEPES, and (c) 0.1% BSA stabilizer (pH 7.4) was prepared. The growth medium was gently removed from the cell plates and 20 μL of Assay Buffer added to each well. The plate was then incubated at 37° C. for 60 min. Test compounds were serially diluted in Assay Buffer to desired concentrations (more particularly to one or more of the following μM concentrations: 25, 12.5, 6.25, 3.125, 1.5625, 0.78125, 0.390625, 0.1953125, 0.09765625, 0.048828125, 0.024414063, 0.012207031). Five μL of compound dilution was then added to each well and the plate incubated at 37° C. for 90 min. The detection reagents were prepared according to the manufacture's instruction. Twelve μL of the detection reagents were added to each well and the plate incubated at room temperature for 60 min.
The plates were read on an EnVision instrument, using Protocol name: Luminescence, Plate type: 384 Costar, Measurement height: 3 mm, Measurement time: 1 s, Aperture: 384 Plate aperture. The % activity relative to the positive control was calculated using the following equation:
The % Activity values were plotted versus the concentration of test compound and fitted to a sigmoidal dose-response curve with a Hill slope=1 (fixed value) using nonlinear regression with GraphPad Prism 5.0 to calculate the EC50 values. […]

A further experiment deals with T2, Human GPR120 short form (Homo sapiens, UniProt Q5NUL3).
T2 construct: expressed in transfected cells
T2 sequence (Q5NUL3 1-361): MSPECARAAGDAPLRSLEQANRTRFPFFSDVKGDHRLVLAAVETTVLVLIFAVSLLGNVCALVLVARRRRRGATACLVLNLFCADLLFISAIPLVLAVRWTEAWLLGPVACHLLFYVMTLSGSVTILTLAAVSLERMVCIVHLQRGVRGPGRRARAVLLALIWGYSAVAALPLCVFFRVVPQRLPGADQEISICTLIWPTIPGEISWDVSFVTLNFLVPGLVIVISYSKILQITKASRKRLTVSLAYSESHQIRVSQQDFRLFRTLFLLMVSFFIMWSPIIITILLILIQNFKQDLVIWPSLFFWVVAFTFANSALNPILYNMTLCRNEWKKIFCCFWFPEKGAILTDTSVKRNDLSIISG
Briefly: Human GPR120 calcium flux assay (FLIPR), Procedure Calcium A. The experiment is classed as cell-based. The following applies: HEK-293 cells expressing human GPR120 short form, 2500 cells/well; read-out: GPR120 Ca2+ Assay A EC50. Put shortly: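 HEK293 cells stably expressing the short isoform (NM_001195755.1), 2500/well, starved 1 h, then loaded with Fluo-4 NW plus probenecid (30 min 37 °C, 15 min RT). Compound solutions 0.012–100 μM, 0.2% DMSO final; FLIPR read 300 s after addition. EC50 from Fmax−Fmin fitted to variable-slope sigmoid (Hill <2).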
On the technique in general: A change in cytosolic calcium serves as a functional read-out for many receptors and channels.

One may read the EC50 as the concentration needed to bring the measured effect to its halfway point.

T1 sequence (Q5NUL3 1-377 isoform Q5NUL3-1): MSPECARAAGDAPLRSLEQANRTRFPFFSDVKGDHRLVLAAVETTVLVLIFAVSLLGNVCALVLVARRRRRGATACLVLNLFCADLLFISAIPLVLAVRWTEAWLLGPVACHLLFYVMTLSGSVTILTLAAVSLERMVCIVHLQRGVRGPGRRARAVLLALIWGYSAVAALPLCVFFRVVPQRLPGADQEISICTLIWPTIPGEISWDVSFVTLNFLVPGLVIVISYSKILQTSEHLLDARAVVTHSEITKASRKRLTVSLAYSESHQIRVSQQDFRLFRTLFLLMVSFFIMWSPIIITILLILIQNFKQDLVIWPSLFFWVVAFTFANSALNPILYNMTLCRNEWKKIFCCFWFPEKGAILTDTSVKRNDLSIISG
T1 sequence (P32121 whole entry partner): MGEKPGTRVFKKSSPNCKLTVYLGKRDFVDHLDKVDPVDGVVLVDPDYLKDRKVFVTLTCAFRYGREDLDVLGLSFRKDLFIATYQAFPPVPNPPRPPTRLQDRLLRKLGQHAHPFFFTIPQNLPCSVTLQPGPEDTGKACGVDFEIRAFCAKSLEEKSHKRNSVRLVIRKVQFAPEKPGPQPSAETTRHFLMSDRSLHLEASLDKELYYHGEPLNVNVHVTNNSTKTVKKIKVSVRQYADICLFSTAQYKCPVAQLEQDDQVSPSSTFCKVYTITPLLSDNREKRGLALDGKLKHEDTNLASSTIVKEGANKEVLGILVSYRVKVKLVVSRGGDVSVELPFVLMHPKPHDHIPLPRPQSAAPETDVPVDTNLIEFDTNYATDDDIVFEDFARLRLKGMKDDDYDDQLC

Regarding “3-(4-((3-chloro-5-(4-ethylphenyl)isothiazol-4-yl)methoxy)-2,3,5-trifluorophenyl)propan-1-ol [Cpd 140]”, the figures for the concentration giving a half-maximal response (EC50) (in experiment [1]; on Human GPR120 short form) were 116 nM and 200 nM, respectively.

For “3-(4-((4-(4-ethylphenyl)thiophen-3-yl)methoxy)-3,5-difluorophenyl)propanoic acid [Cpd 53]”, the values for the EC50 (in experiment [1]; at Human GPR120 short form) were 210 nM and 690 nM, respectively. “3-(4-[[2-(4-chlorophenyl)-5-methyl-4-(trifluoromethyl)thiophen-3-yl]methoxy]-3,5-difluorophenyl)propanoic acid [Cpd 40]”: the EC50 in experiment [1] stood at 650 nM; at Human GPR120 short form, 129 nM. For `CCc1ccc(-c2ccsc2COc2ccc(CCCO)c(F)c2F)cc1` [Cpd 4, 3-(4-[[3-(4-ethylphenyl)thiophen-2-yl]methoxy]-2,3-difluorophenyl)propan-1-ol] the same measures were 261 nM and 59 nM. With `CCc1ccc(-c2cc(Cl)sc2COc2ccc(CCC(=O)O)c(C)c2C)cc1` [Cpd 5, 3-(4-[[5-chloro-3-(4-ethylphenyl)thiophen-2-yl]methoxy]-2,3-dimethylphenyl)propanoic acid], the EC50 is 191 nM in experiment [1] and 61 nM at Human GPR120 short form. The corresponding values for `CCc1ccc(-c2cc(Cl)sc2COc2c(F)cc(CCC(=O)O)cc2F)cc1` [Cpd 8, 3-(4-((5-chloro-3-(4-ethylphenyl)thiophen-2-yl)methoxy)-3,5-difluorophenyl)propanoic acid] are 167 nM and 114 nM. The corresponding values for `CCc1ccc(-c2cc(Cl)sc2COc2c(F)cc(CCCO)cc2F)cc1` [Cpd 9, 3-(4-[[5-chloro-3-(4-ethylphenyl)thiophen-2-yl]methoxy]-3,5-difluorophenyl)propan-1-ol] are 203 nM and 117 nM. For `CCc1ccc(-c2cc(Cl)sc2COc2ccc(CCC(=O)O)c(F)c2F)cc1` [Cpd 11, 3-(4-[[5-chloro-3-(4-ethylphenyl)thiophen-2-yl]methoxy]-2,3-difluorophenyl)propanoic acid] the same measures were 222 nM and 126 nM. As for `CCc1ccc(-c2cc(F)sc2COc2ccc(CCC(=O)O)c(F)c2F)cc1` [Cpd 12, 3-(4-[[3-(4-ethylphenyl)-5-fluorothiophen-2-yl]methoxy]-2,3-difluorophenyl)propanoic acid], the EC50 is 125 nM in experiment [1] and 135 nM at Human GPR120 short form. For `CCc1ccc(-c2cc(C)sc2COc2ccc(CCC(=O)O)c(C)c2C)cc1` [Cpd 13, 3-(4-((3-(4-ethylphenyl)-5-methylthiophen-2-yl)methoxy)-2,3-dimethylphenyl)propanoic acid] the same measures were 498 nM and 163 nM. For `OCCCc1ccc(OCc2sc(Cl)cc2-c2ccc(Cl)cc2)c(F)c1F` [Cpd 29, 3-(4-[[5-chloro-3-(4-chlorophenyl)thiophen-2-yl]methoxy]-2,3-difluorophenyl)propan-1-ol], the EC50 in experiment [1] was 243 nM. The same measure, in the same setting: under `Cc1ccc(-c2snc(Cl)c2COc2c(F)cc(CCC(=O)O)cc2F)c(F)c1` [Cpd 77, 3-(4-[[3-chloro-5-(2-fluoro-4-methylphenyl)-1,2-thiazol-4-yl]methoxy]-3,5-difluorophenyl)propanoic acid] stands 191 nM. On the same count and under the same terms, under `COc1ccc(-c2nsc(C(F)(F)F)c2COc2c(F)cc(CCCO)cc2F)cc1` [Cpd 234, 3-(3,5-difluoro-4-[[3-(4-methoxyphenyl)-5-(trifluoromethyl)-1,2-thiazol-4-yl]methoxy]phenyl)propan-1-ol] stands 145 nM; under `Cc1cc(CCC(=O)O)ccc1OCc1c(-c2ccc(Cl)cc2)nsc1C(F)(F)F` [Cpd 235, 3-(4-[[3-(4-chlorophenyl)-5-(trifluoromethyl)-1,2-thiazol-4-yl]methoxy]-3-methylphenyl)propanoic acid], 302 nM; under `CCc1ccc(-c2nsc(C(F)(F)F)c2COc2c(C)cc(CCC(=O)O)cc2C)cc1` [Cpd 239, 3-(4-((3-(4-ethylphenyl)-5-(trifluoromethyl)isothiazol-4-yl)methoxy)-3,5-dimethylphenyl)propanoic acid], 203 nM.

For the origin of these results see patent US9067898B1, “Isothiazole derivatives as GPR120 agonists for the treatment of type II diabetes” (Janssen Pharmaceutica NV, priority 2014, dated 2015).
